The source of these data is patent publication US8674109B2, “Pesticidal compositions” (Dow AgroSciences, LLC., priority 2009, dated 2014).

Common to all, as to format: in vivo
Series [1] has as its system green peach aphid (Myzus persicae). The series can be described thus: Insecticidal test for green peach aphid in foliar spray assay on cabbage seedlings. Summed up: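 Cabbage seedlings carrying 20-50 aphids (adults and nymphs) were sprayed to runoff with compound at 200 ppm in acetone/methanol diluted in 0.025% Tween 20, with four pots per treatment. After three days at about 25 °C and 40% RH, live aphids were counted. Percent control was Abbott-corrected against solvent-check plants.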

The test system of series [2] is beet armyworm (BAW; Spodoptera exigua: Lepidoptera). The series can be described thus: Insecticidal test for beet armyworm, 128-well diet tray assay. Summed up:
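Three to five second-instar larvae per well fed on artificial diet surface-treated with 50 μg/cm^2 compound (applied in 90:10 acetone-water, dried). Trays were held six days at 25 °C, 14:10 light-dark. Percent mortality was averaged across eight wells.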

Series [3] relates to corn earworm (CEW; Helicoverpa zea: Lepidoptera). The series can be described thus: Insecticidal test for corn earworm, 128-well diet tray assay. Summed up:
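Second-instar larvae, three to five per well, placed on artificial diet treated with 50 μg/cm^2 compound applied in 90:10 acetone-water and dried. Held six days at 25° C., 14:10 light-dark. Percent mortality scored per well and averaged over eight wells.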

On to `CC(OC(=O)Nc1ccc(-c2ncn(-c3ccc(OC(F)(F)F)cc3)n2)cc1)c1ccc(Cl)cc1` (stereo not drawn) [Compound 81], for which the “% Mortality GPA 200 ppm” value in series [1] is listed as “B (Less than 80)”. Further, the “% Mortality BAW 50 μg/cm^2” value in series [2] is on record as “A (50-100)”. Besides, the “% Mortality CEW 50 μg/cm^2” value in series [3] is recorded as “A (50-100)”.

With `C#CC(OC(=O)Nc1ccc(-c2ncn(-c3ccc(OC(F)(F)F)cc3)n2)cc1)c1ccccc1` (stereo not drawn) [Compound 82], the “% Mortality GPA 200 ppm” value in series [1] is “B (Less than 80)”. Besides, the “% Mortality BAW 50 μg/cm^2” value in series [2] is on record as “A (50-100)”. Also, the “% Mortality CEW 50 μg/cm^2” value in series [3] is “A (50-100)”.

For `O=C(Nc1ccc(-c2ncn(-c3ccc(OC(F)(F)F)cc3)n2)cc1)OC(c1ccccc1)c1ccccc1` [Compound 83], the “% Mortality GPA 200 ppm” value in series [1] is “B (Less than 80)”. For the same molecule, the “% Mortality BAW 50 μg/cm^2” value in series [2] was “A (50-100)”. The “% Mortality CEW 50 μg/cm^2” value in series [3] is “A (50-100)”.

Regarding `CC(OC(=O)Nc1ccc(-c2ncn(-c3ccc(OC(F)(F)F)cc3)n2)cc1)c1ccc(F)cc1` (stereo not drawn) [Compound 84], the “% Mortality GPA 200 ppm” value in series [1] is reported as “B (Less than 80)”. The “% Mortality BAW 50 μg/cm^2” value in series [2] is “A (50-100)”. Also, the “% Mortality CEW 50 μg/cm^2” value in series [3] is reported as “A (50-100)”.

With `CCC(OC(=O)Nc1ccc(-c2ncn(-c3ccc(OC(F)(F)F)cc3)n2)cc1)c1ccccc1` (stereo not drawn) [Compound 85], the “% Mortality GPA 200 ppm” value in series [1] is listed as “B (Less than 80)”. For the same molecule, the “% Mortality BAW 50 μg/cm^2” value in series [2] is “A (50-100)”. Besides, the “% Mortality CEW 50 μg/cm^2” value in series [3] is reported as “A (50-100)”.

As to `Cc1noc(C)c1C(C)OC(=O)Nc1ccc(-c2ncn(-c3ccc(OC(F)(F)F)cc3)n2)cc1` (stereo not drawn) [Compound 86], the “% Mortality GPA 200 ppm” value in series [1] is given as “B (Less than 80)”. Moreover, in series [2], the “% Mortality BAW 50 μg/cm^2” value is on record as “A (50-100)”. In series [3], the “% Mortality CEW 50 μg/cm^2” value was “A (50-100)”.

Consider `CC(C)OC(=O)Nc1ccc(-c2ncn(-c3ccc(OC(F)(F)F)cc3)n2)cc1` [Compound 87], for which, in series [1], the “% Mortality GPA 200 ppm” value is “B (Less than 80)”. In series [2], the “% Mortality BAW 50 μg/cm^2” value is “A (50-100)”. Also, in series [3], the “% Mortality CEW 50 μg/cm^2” value is on record as “B (Less than 50)”.

Take `O=C(Nc1ccc(-c2ncn(-c3ccc(OC(F)(F)F)cc3)n2)cc1)OC(c1ccccc1)C1CC1` (stereo not drawn) [Compound 88]: in series [1], the “% Mortality GPA 200 ppm” value is listed as “B (Less than 80)”. Moreover, in series [2], the “% Mortality BAW 50 μg/cm^2” value is given as “A (50-100)”. In series [3], the “% Mortality CEW 50 μg/cm^2” value was “A (50-100)”.

On to `Cc1cccc(C)c1C(C)OC(=O)Nc1ccc(-c2ncn(-c3ccc(OC(F)(F)F)cc3)n2)cc1` (stereo not drawn) [Compound 89], for which the “% Mortality GPA 200 ppm” value in series [1] is on record as “B (Less than 80)”. Moreover, in series [2], the “% Mortality BAW 50 μg/cm^2” value is recorded as “A (50-100)”. Besides, in series [3], the “% Mortality CEW 50 μg/cm^2” value is recorded as “A (50-100)”.

For `O=C(Nc1ccc(-c2ncn(-c3ccc(OC(F)(F)F)cc3)n2)cc1)OC(c1ccccc1)C(F)(F)F` (stereo not drawn) [Compound 90], the “% Mortality GPA 200 ppm” value in series [1] is listed as “B (Less than 80)”. In addition, the “% Mortality BAW 50 μg/cm^2” value in series [2] is listed as “A (50-100)”. Also, the “% Mortality CEW 50 μg/cm^2” value in series [3] is reported as “A (50-100)”.

`Cc1ccc(C(C)OC(=O)Nc2ccc(-c3ncn(-c4ccc(OC(F)(F)F)cc4)n3)cc2)cc1` (stereo not drawn) [Compound 91]: the “% Mortality GPA 200 ppm” value in series [1] is recorded as “B (Less than 80)”. Moreover, the “% Mortality BAW 50 μg/cm^2” value in series [2] is “A (50-100)”. In addition, the “% Mortality CEW 50 μg/cm^2” value in series [3] was “A (50-100)”.

Turning to `Cc1cccc(C(C)OC(=O)Nc2ccc(-c3ncn(-c4ccc(OC(F)(F)F)cc4)n3)cc2)c1` (stereo not drawn) [Compound 92], the “% Mortality GPA 200 ppm” value in series [1] is recorded as “B (Less than 80)”. Moreover, in series [2], the “% Mortality BAW 50 μg/cm^2” value is listed as “A (50-100)”. Further, the “% Mortality CEW 50 μg/cm^2” value in series [3] is recorded as “A (50-100)”.

Consider `Cc1ccccc1C(C)OC(=O)Nc1ccc(-c2ncn(-c3ccc(OC(F)(F)F)cc3)n2)cc1` (stereo not drawn) [Compound 93], for which, in series [1], the “% Mortality GPA 200 ppm” value is given as “B (Less than 80)”. For the same molecule, the “% Mortality BAW 50 μg/cm^2” value in series [2] is “A (50-100)”. In addition, the “% Mortality CEW 50 μg/cm^2” value in series [3] is “A (50-100)”.

Regarding `Cc1ccc2c(c1)CC(C)C(OC(=O)Nc1ccc(-c3ncn(-c4ccc(OC(F)(F)F)cc4)n3)cc1)O2` (stereo not drawn) [Compound 94], the “% Mortality GPA 200 ppm” value in series [1] is recorded as “B (Less than 80)”. Also, in series [2], the “% Mortality BAW 50 μg/cm^2” value is reported as “A (50-100)”. Further, in series [3], the “% Mortality CEW 50 μg/cm^2” value is “A (50-100)”.

With `O=C(Nc1ccc(-c2ncn(-c3ccc(OC(F)(F)F)cc3)n2)cc1)OC1CCc2ccccc2O1` (stereo not drawn) [Compound 95], the “% Mortality GPA 200 ppm” value in series [1] is “B (Less than 80)”. In series [2], the “% Mortality BAW 50 μg/cm^2” value was “A (50-100)”. Further, in series [3], the “% Mortality CEW 50 μg/cm^2” value is recorded as “A (50-100)”.

`CCC#CC(C)(C)OC(=O)Nc1ccc(-c2ncn(-c3ccc(OC(F)(F)F)cc3)n2)cc1` [Compound 96]: in series [1], the “% Mortality GPA 200 ppm” value is reported as “B (Less than 80)”. In addition, in series [2], the “% Mortality BAW 50 μg/cm^2” value is “A (50-100)”. Also, the “% Mortality CEW 50 μg/cm^2” value in series [3] is recorded as “A (50-100)”.

For `COc1ccc(C(C)OC(=O)Nc2ccc(-c3ncn(-c4ccc(OC(F)(F)F)cc4)n3)cc2)cc1` (stereo not drawn) [Compound 97], in series [1], the “% Mortality GPA 200 ppm” value is “B (Less than 80)”. Further, the “% Mortality BAW 50 μg/cm^2” value in series [2] is “A (50-100)”. Also, the “% Mortality CEW 50 μg/cm^2” value in series [3] is “A (50-100)”.

In the case of `CCOC(=O)Nc1ccc(-c2ncn(-c3ccc(OC(F)(F)F)cc3)n2)cc1` [Compound 98], the “% Mortality GPA 200 ppm” value in series [1] is on record as “B (Less than 80)”. Besides, in series [2], the “% Mortality BAW 50 μg/cm^2” value is “A (50-100)”. Further, the “% Mortality CEW 50 μg/cm^2” value in series [3] was “A (50-100)”.

For the molecule `CN(C)CC#CC(C)(C)OC(=O)Nc1ccc(-c2ncn(-c3ccc(OC(F)(F)F)cc3)n2)cc1` [Compound 99], in series [1], the “% Mortality GPA 200 ppm” value was “B (Less than 80)”. For the same molecule, in series [2], the “% Mortality BAW 50 μg/cm^2” value is “B (Less than 50)”. Also, the “% Mortality CEW 50 μg/cm^2” value in series [3] was “B (Less than 50)”.

For the molecule `COc1ccc(CC(C)(C)OC(=O)Nc2ccc(-c3ncn(-c4ccc(OC(F)(F)F)cc4)n3)cc2)cc1` [Compound 100], the “% Mortality GPA 200 ppm” value in series [1] is listed as “B (Less than 80)”. Moreover, the “% Mortality BAW 50 μg/cm^2” value in series [2] is “B (Less than 50)”. For the same molecule, in series [3], the “% Mortality CEW 50 μg/cm^2” value was “B (Less than 50)”.

On to `CCCCCC(CC)OC(=O)Nc1ccc(-c2ncn(-c3ccc(OC(F)(F)F)cc3)n2)cc1` (stereo not drawn) [Compound 101], for which the “% Mortality GPA 200 ppm” value in series [1] is listed as “B (Less than 80)”. Moreover, the “% Mortality BAW 50 μg/cm^2” value in series [2] was “A (50-100)”. Also, the “% Mortality CEW 50 μg/cm^2” value in series [3] is on record as “A (50-100)”.

`CCCCCCC(C)OC(=O)Nc1ccc(-c2ncn(-c3ccc(OC(F)(F)F)cc3)n2)cc1` (stereo not drawn) [Compound 102]: the “% Mortality GPA 200 ppm” value in series [1] is listed as “B (Less than 80)”. Further, in series [2], the “% Mortality BAW 50 μg/cm^2” value is “B (Less than 50)”. Moreover, the “% Mortality CEW 50 μg/cm^2” value in series [3] is given as “B (Less than 50)”.

As to `CC(OC(=O)Nc1ccc(-c2ncn(-c3ccc(OC(F)(F)F)cc3)n2)cc1)C(C)(C)C` (stereo not drawn) [Compound 103], in series [1], the “% Mortality GPA 200 ppm” value is “B (Less than 80)”. Besides, in series [2], the “% Mortality BAW 50 μg/cm^2” value is reported as “A (50-100)”. Besides, in series [3], the “% Mortality CEW 50 μg/cm^2” value is given as “B (Less than 50)”.

For the molecule `COC(=O)Nc1ccc(-c2ncn(-c3ccc(OC(F)(F)F)cc3)n2)cc1` [Compound 104], in series [1], the “% Mortality GPA 200 ppm” value is reported as “B (Less than 80)”. The “% Mortality BAW 50 μg/cm^2” value in series [2] is recorded as “A (50-100)”. Also, the “% Mortality CEW 50 μg/cm^2” value in series [3] is reported as “A (50-100)”.

Consider `O=C(Nc1ccc(-c2ncn(-c3ccc(OC(F)(F)F)cc3)n2)cc1)OCc1ccccc1` [Compound 105], for which the “% Mortality GPA 200 ppm” value in series [1] is “B (Less than 80)”. The “% Mortality BAW 50 μg/cm^2” value in series [2] is listed as “A (50-100)”. The “% Mortality CEW 50 μg/cm^2” value in series [3] is listed as “A (50-100)”.

Turning to `O=C(Nc1ccc(-c2ncn(-c3ccc(OC(F)(F)F)cc3)n2)cc1)OC1Cc2ccccc2C1` [Compound 106], the “% Mortality GPA 200 ppm” value in series [1] is on record as “B (Less than 80)”. Besides, in series [2], the “% Mortality BAW 50 μg/cm^2” value is on record as “B (Less than 50)”. For the same molecule, the “% Mortality CEW 50 μg/cm^2” value in series [3] is recorded as “A (50-100)”.
